Experiments:
[1] = 298.15 K, 101.33 kPa, Liquid; for viscosity: Capillary tube (Ostwald / Ubbelohde) method; for speed of sound: Sing-around technique in a fixed-path interferometer; for mass density: Vibrating tube method
[2] = xn = mol fraction of the nth substance listed; conditions: 298.15 K, 101 kPa, Liquid; for viscosity: Capillary tube (Ostwald / Ubbelohde) method; for speed of sound: Sing-around technique in a fixed-path interferometer; for mass density: Vibrating tube method

CCCCCCCO [heptan-1-ol]
[1]
Conditions	mass density [kg/m3]	speed of sound [m/s]	viscosity [mPa·s]
–	818.77	1329	6.041

CCCCCCCO [heptan-1-ol] + CC1CCCCC1
[2]
Conditions	mass density [kg/m3]	speed of sound [m/s]	viscosity [mPa·s]
x1 = 0.1	770.2	–	–
x1 = 0.1009	–	–	0.797
x1 = 0.1031	–	1217	–
x1 = 0.1506	773.03	–	–
x1 = 0.2001	775.76	–	–
x1 = 0.2007	–	–	0.956
x1 = 0.2024	–	1225	–
x1 = 0.3006	–	1236	–
x1 = 0.3011	781.37	–	1.174
x1 = 0.4	786.91	–	–
x1 = 0.4011	–	–	1.461
x1 = 0.4033	–	1247	–
x1 = 0.449	789.61	–	–
x1 = 0.4501	–	–	1.64
x1 = 0.4973	–	1259	–
x1 = 0.4985	–	–	1.839
x1 = 0.5002	792.45	–	–
x1 = 0.5394	–	1264	–
x1 = 0.5497	795.18	–	–
x1 = 0.5999	797.98	–	–
x1 = 0.6026	–	1273	–
x1 = 0.6033	–	–	2.384
x1 = 0.6503	800.71	–	–
x1 = 0.7007	803.42	–	–
x1 = 0.7045	–	1287	–
x1 = 0.7417	–	–	3.369
x1 = 0.7972	–	1300	–
x1 = 0.7985	–	–	3.875
x1 = 0.8	808.68	–	–
x1 = 0.8495	811.24	–	–
x1 = 0.8951	–	1315	–
x1 = 0.8998	813.8	–	–
x1 = 0.9006	–	–	4.922
x1 = 1	–	1329	–

CCCCCCCO [heptan-1-ol] + ClC(Cl)=C(Cl)Cl
Conditions	speed of sound [m/s]
[2], x1 = 1	1329

CC1CCCCC1 [methylcyclohexane]
[1]
Conditions	mass density [kg/m3]	speed of sound [m/s]	viscosity [mPa·s]
–	764.99	1209	0.684

CC1CCCCC1 [methylcyclohexane] + CCCCCCCO
Conditions	speed of sound [m/s]
[2], x2 = 0	1215

CC1CCCCC1 [methylcyclohexane] + ClC(Cl)=C(Cl)Cl
Conditions	speed of sound [m/s]
[2], x2 = 0	1215

ClC(Cl)=C(Cl)Cl [tetrachloroethene]
[1]
Conditions	mass density [kg/m3]	speed of sound [m/s]	viscosity [mPa·s]
–	1614.49	1039	0.847

ClC(Cl)=C(Cl)Cl [tetrachloroethene] + CC1CCCCC1
[2]
Conditions	mass density [kg/m3]	speed of sound [m/s]	viscosity [mPa·s]
x1 = 0.0999	–	–	0.69
x1 = 0.1007	834.38	–	–
x1 = 0.1924	900.06	–	–
x1 = 0.2	905.67	–	–
x1 = 0.2068	–	–	0.698
x1 = 0.2439	–	1184	–
x1 = 0.2504	942.96	–	–
x1 = 0.2505	–	–	0.701
x1 = 0.2982	–	–	0.705
x1 = 0.3011	981.34	–	–
x1 = 0.3029	982.75	–	–
x1 = 0.3944	–	–	0.716
x1 = 0.4001	1058.76	–	–
x1 = 0.4173	–	1156	–
x1 = 0.4897	–	1146	–
x1 = 0.4996	–	–	0.728
x1 = 0.5009	1141.4	–	–
x1 = 0.5494	–	1136	–
x1 = 0.5503	1183.38	–	–
x1 = 0.5984	1225.08	–	–
x1 = 0.6016	–	–	0.746
x1 = 0.6496	1270.62	–	–
x1 = 0.6549	–	1116	–
x1 = 0.7007	–	–	0.765
x1 = 0.7014	1317.87	–	–
x1 = 0.7372	–	1098	–
x1 = 0.7786	–	1089	–
x1 = 0.7995	1410.5	–	–
x1 = 0.8008	–	–	0.789
x1 = 0.8104	–	1082	–
x1 = 0.8418	–	1075	–
x1 = 0.8489	1458.9	–	–
x1 = 0.8693	–	1069	–
x1 = 0.8986	1508.67	–	–
x1 = 0.8996	–	–	0.816
x1 = 0.9188	–	1057	–
x1 = 1	–	1039	–

ClC(Cl)=C(Cl)Cl [tetrachloroethene] + CCCCCCCO
[2]
Conditions	mass density [kg/m3]	speed of sound [m/s]	viscosity [mPa·s]
x2 = 0	–	1039	–
x2 = 0.093	1514.31	–	–
x2 = 0.0967	–	1050	–
x2 = 0.102	–	–	0.995
x2 = 0.1957	–	1069	–
x2 = 0.1994	1409	–	–
x2 = 0.2118	–	–	1.222
x2 = 0.2492	–	1082	–
x2 = 0.2498	–	–	1.32
x2 = 0.2502	1361.6	–	–
x2 = 0.2952	–	1093	–
x2 = 0.2986	1318.1	–	–
x2 = 0.3015	–	–	1.457
x2 = 0.3905	–	1120	–
x2 = 0.3979	1233.3	–	–
x2 = 0.3997	–	–	1.795
x2 = 0.4452	1194.85	–	–
x2 = 0.4667	–	1142	–
x2 = 0.4983	1153.02	–	–
x2 = 0.4998	–	–	2.24
x2 = 0.5478	–	–	2.485
x2 = 0.5495	1114.05	–	–
x2 = 0.5531	–	1169	–
x2 = 0.587	–	–	2.703
x2 = 0.5894	–	1178	–
x2 = 0.5995	1077.22	–	–
x2 = 0.6488	1042	–	–
x2 = 0.6507	–	1200	–
x2 = 0.6969	1008.69	–	–
x2 = 0.6995	–	–	3.451
x2 = 0.7002	–	1217	–
x2 = 0.74	–	–	3.742
x2 = 0.7932	944.69	–	–
x2 = 0.7954	–	–	4.184
x2 = 0.7989	–	1252	–
x2 = 0.8497	908.83	–	–
x2 = 0.8969	–	1290	–
x2 = 0.8985	–	–	5.06
x2 = 0.8986	878.72	–	–
